{
  "source": "patent US20230255970A1",
  "about": "“COMPOSITIONS AND METHODS FOR TREATING PROLIFERATIVE DISEASES” (The Broad Institute, Inc., priority 2020, published 2023)",
  "key": {"[1]": {"tested_on": "STK3/MST2 overexpression", "experiment": "Cell Painting morphological profile matching to STK3/MST2 overexpression", "format": "cell-based, human", "excerpt": "To profile each exogenously expressed gene (or allele therein), the previously developed image-based profiling assay, called Cell Painting was used (see Bray et al., Nat. Protoc. 2016 September; 11(9): 1757-1774). […] In five replicates in 384-well plate format, U2OS cells (human bone osteosarcoma cells), chosen for their flat morphology and previous validation in the assay, were infected with an arrayed ‘reference’ expression library of 323 open reading frame (ORF) constructs of partially characterized functions, a subset of which have been previously described. […]\nUsing the morphological signature found for YAP1 and TAZ, data mining was performed seeking compounds that effected the same (or opposite) morphology by computationally matching the morphological signature to a public database of small molecule signatures (see Caicedo et al., Nat. Meth. 2017 September; 14(9), 849-63, doi:10.1038/nMeth.4397, incorporated herein by reference). Specifically, the intersection of features in the two datasets was determined, resulting in 605 features (1399 features in the genetic screen, without any feature selection; and 729 features in the compound screen, obtained using the findCorrelation function with a threshold of 0.90 on the original 1,783 dimensional feature set). […]"}, "[2]": {"tested_on": "YAP1", "experiment": "Western blot of phospho-YAP1 (S127) in H9 cells", "format": "cell-based, human", "settings": "24 hrs", "protocol": "H9 hPSCs (WiCell) were maintained on vitronectin (Thermo Fisher)-coated plates in Essential 8 (E8) medium. The cells were routinely passaged using 0.5 mM EDTA and treated with 5 μM Y-27632 dihydrochloride (Tocris) on the first day. For testing the effects of the small molecules, H9 hPSCs were seeded at 50K cells/cm^2 on vitronectin-coated plates in E8 medium supplemented with 5 μM Y-27632 dihydrochloride (day 0). On day 1, the medium was switched to E8 medium. On day 2, the medium was switched to E8 medium supplemented with the small molecules. Following overnight incubation, the cells were collected for subsequent analysis on day 3.\nYAP1-related Western blotting: The cells were lysed in RIPA buffer (Pierce) supplemented with Halt Protease inhibitor cocktail and Halt Phosphatase inhibitor cocktail. Cells were lysed in hot Tris-SDS buffer (pH 7.6) and boiled for 5 minutes at 95° C. The protein concentration of each sample was quantified using the Pierce BCA protein assay (Thermo Fisher). The proteins were resolved by SDS-PAGE and transferred to PVDF membranes using the Trans-Blot Turbo Transfer system (Bio-Rad). The membranes were blocked in 5% non-fat milk in TBS-T for up to 1 hour at room temperature and incubated with primary antibodies in 5% bovine serum albumin in TBS-T overnight at 4° C. […]"}},
  "data": [
    {"compound": "c1ccc(CNc2ncnc3ccccc23)cc1", "note": "[BRD-K43796186, N-benzylquinazolin-4-amine]", "values": [
      {"measurement": "Morphological profile correlation with overexpression of STK3/MST2", "setting": "[1]", "result": "−0.49"},
      {"measurement": "YAP1 S127 phosphorylation", "setting": "[2]", "result": "decreased YAP1 S127 phosphorylation"}
    ]}
  ]
}
